Measured values: patent US6699969B1, “Assays for the detection of microtubule depolymerization inhibitors” (The Regents of the University of California, priority 1998, dated 2004)

Tested on: MSU1.1 human fibroblasts
Assay: Centrosome targeting of GFP fusion after transient transfection
Assay type: cell-based
Conditions: 2-4 hr after transfection
Method: To allow transient expression of a human p80 WD40-GFP fusion protein in HeLa cells, a DNA fragment containing amino acids 1-263 of human p80 katanin was generated by PCR amplification, placing a BamHl site and a Kozak consensus at the predicted translation start and an EcoRI site after the codon for a.a. 263. This BamH1-EcoR1 fragment was ligated into the GFP fusion vector pEGFP-N1 (Clontech).
Both MSU1.1 and Hela cells were grown on 18 mm glass coverslips in Optimem medium (Life Technologies) supplemented with 10% fetal bovine serum, penicillin and streptomycin. Plasmids were transfected using Superfect Reagent (Qiagen) for 2 hr after which coverslips were washed with PBS and placed in fresh culture medium at 37° C. with 5% CO2 for 1-24 hr.
For imaging of GFP-fluorescence and immunofluorescence with the human p80 katanin antibody or with the γ-tubulin antibody, monoclonal GTU88 (Sigma Chemical), cells on coverslips were fixed either in −20° C. methanol or in 0.5×PBS, 3.7% formaldehyde, 75% methanol at 22° C. for 10 min followed by rehydration in TBST. Antibody labelling was carried out in TBST containing 4% BSA. Images were captured with a Nikon Microphot SA microscope, 100× Plan Fluor 1.3 objective, Photometrics Quantix camera and IP Lab Spectrum software (Scanalytics).

Substance: p80 WD40-GFP: six WD40 repeats of human p80 katanin (a.a. 1-263) appended to N-terminus of green fluorescent protein
- localization of green fluorescence: co-localized with γ-tubulin staining
